Data as given in PMC10648349, “Aromatic Diboronic Acids as Effective KPC/AmpC Inhibitors” (Molecules, 2023).
In brackets after ≈: the same amount, converted by molar mass. Several values for one entry are separate records, joined by “and”; a condition that tells them apart may be missing. Equal values may be shown once. Values belong to the molecule of their own block, whether it stands above or below them.

Legend:
[1] = tested on: Gram-negative rods (except P. aeruginosa); test: direct antimicrobial activity, MIC; type: cell-based
Procedure: (§1) Direct antimicrobial activity against Gram-negative and Gram-positive bacterial strains, as well as against yeast, was examined as previously described by the disc-diffusion test, the MIC determination assay, the MBC (for bacteria), and the MFC (for yeasts) determination tests. All the above-mentioned tests were performed according to EUCAST [71, 72] and CLSI [73, 74, 75, 76, 77] recommendations. The following reference agents were used: nitrofurantoin (for Gram-negative rods), linezolid (for Gram-positive bacteria), and fluconazole (in the case of fungi). The new aromatic diboronic acids were dissolved in DMSO (Sigma, St. Louis, MO, USA). In the disc-diffusion test, the concentration of new agents was 0.4 mg per disc.

yeasts = test: antifungal activity, MIC/MFC; type: cell-based; details: for MFC: yeasts against which fungicidal activity was noticed
Procedure: as §1, with “disc. Depending on the solubility, the MIC and MBC/MFC values were determined up to 100 mg/L for 1k, up to 200 mg/L for 7c, and up to 400 mg/L for the remaining compounds: 1a–1j, 2a–2g, 3a–3f, 4a–4b, 5a–5c, 6a and 7a–7b.” for “disc.”

[2] = tested on: E. coli 76 KPC-2-positive; test: checkerboard microdilution, antibiotic plus tested agent; type: cell-based, Escherichia coli
In short: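 Read-out is the antibiotic MIC with agent present, plus FICI = combined/alone MIC ratios summed for both partners. Meropenem pairs served for carbapenemase strains and ceftazidime pairs for the AmpC strain. Agent or PBA was tested at 4–16 mg/L.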

[3] = tested on: E. coli 82 TR(pl 81), transformant carrying blaKPC-3; test: whole cell assay, meropenem MIC with tested agent; type: cell-based, Escherichia coli
Procedure: (§2) To examine the ability of tested agents to inhibit various carbapenemases and AmpC-enzymes, their synergy with antibiotics against β-lactamase-producing strains was assessed by checkerboard microdilution assay, with slight modification. Checkerboards were prepared in microtiter plates, with seven two-fold dilutions of β-lactams (1–64 mg/L) in the rows and three two-fold dilutions of tested agents and PBA (4–16 mg/L) in the columns. Tested agents’ concentrations were limited to the concentrations at which the newest commercially available BLIs (vaborbactam, relebactam, and avibactam) are used in susceptibility testing. Plates were inoculated and incubated as in the MIC microdilution assay. Parallel, MICs of tested agents and PBA alone were determined by the microdilution assay. Following the incubation, antibiotic MICs in the presence of each agent’s concentration were determined. Moreover, for the first well without growth found in each checkerboard row and column along the growth/non-growth interface, the fractional inhibitory concentration index (FICI) was calculated using the formula below:FICI = [(MIC of antibiotic in combination)/(MIC of antibiotic alone)] + [(MIC of the tested agent in combination)/(MIC of tested agent alone)].

E. coli DH5α = test: whole cell assay, meropenem MIC with tested agent; type: cell-based, Escherichia coli
Procedure: as §2

[4] = molecular target: KPC-3 in purified protein extract from E. coli 82 TR(pl 81) (Klebsiella pneumoniae, UniProt Q9F663, H272Y); test: nitrocefin hydrolysis test; type: biochemical; details: single repetitions
Procedure: Overnight culture of E. coli 82 TR(pl 81) in MHB was diluted 1:100 into fresh MHB and incubated with shaking at 37 °C until an OD600 of 1 was attained. […] Further incubation was performed under the same conditions until an OD600 of 3 was reached. The culture with the required OD600 was centrifuged (6700× g, 10 min) and the supernatant was discarded. From the obtained bacterial cell pellet total proteins were extracted with the ReadyPreps™ Protein Preparation Kit (Epicentre Biotechnologies, Madison, WI, USA) and used in the subsequent nitrocefin hydrolysis test, performed in a 96-well microplate. Nitrocefin is a chromogenic cephalosporin substrate routinely used to detect the presence of β-lactamases. First, 20 μL of the protein extract was mixed with 80 μL of tested agents (1a, 2a, 3a and PBA as a reference BLI, each examined at concentrations: 4, 8 and 16 mg/L) or with 80 μL of the phosphate buffer (positive control—corresponding to KPC enzyme activity in the purified total proteins extracted from E. coli 82 TR(pl 81) cells). After 10 min of incubation at the room temperature 100 μL of the nitrocefin (Oxoid, Basingstoke, Hampshire, England) was added to reach its final concentration of 150 μM. β-lactamases hydrolyze the β-lactam ring of nitrocefin, causing its degradation and color change. Nitrocefin hydrolysis was evaluated after 3 min of the incubation at room temperature.
As in our previous publication the presence of β-lactamases in the purified protein extract with and without tested agents was assessed by the spectrophotometric measurement of the rates of nitrocefin hydrolysis as relative absorbance at 486 nm. The level of the measured absorbance indicated β-lactamase activity. Finally, the difference in the relative absorbance between the positive control and the sample concentration of the tested inhibitors was calculated and expressed as a percentage. A reduction in the relative absorbance level in the presence of a tested agent was taken as an indicator of the BLI activity of a used aromatic diboronic acid. The experiment was performed in triplicate.

KPC producers = test: microdilution with carbapenems; type: cell-based
Procedure: as §2
(§3) For calculations, all off-scale MICs were converted to the next-highest doubling concentration. Subsequently, both the average and the lowest FICI were interpreted. The interpretation was as follows: FICI ≤ 0.5, synergy; 0.5 < FICI ≤ 4, indifference and FICI > 4, antagonism. Primarily, examined combinations consisted of meropenem (Pol-Aura, Morag, Poland) plus tested agents against carbapenemases-producing strains and ceftazidime (Pol-Aura, Morag, Poland) plus tested agents against AmpC-producing strains. For agents that reduced meropenem MIC at least 4-fold for at least two tested strains, similar assays were performed with imipenem (Pol-Aura, Morag, Poland) and ertapenem (Pol-Aura, Morag, Poland).

AmpC producers = test: microdilution with ceftazidime; type: cell-based
Procedure: as §2, §3

Gram-positive strains = test: direct antimicrobial activity, MIC; type: cell-based; details: all tested coccis
Procedure: as §1, with “disc. Depending on the solubility, the MIC and MBC/MFC values were determined up to 100 mg/L for 1k, up to 200 mg/L for 7c, and up to 400 mg/L for the remaining compounds: 1a–1j, 2a–2g, 3a–3f, 4a–4b, 5a–5c, 6a and 7a–7b.” for “disc.”

Chain of KPC-3 in purified protein extract from E. coli 82 TR(pl 81) (Q9F663 25-293 H272Y): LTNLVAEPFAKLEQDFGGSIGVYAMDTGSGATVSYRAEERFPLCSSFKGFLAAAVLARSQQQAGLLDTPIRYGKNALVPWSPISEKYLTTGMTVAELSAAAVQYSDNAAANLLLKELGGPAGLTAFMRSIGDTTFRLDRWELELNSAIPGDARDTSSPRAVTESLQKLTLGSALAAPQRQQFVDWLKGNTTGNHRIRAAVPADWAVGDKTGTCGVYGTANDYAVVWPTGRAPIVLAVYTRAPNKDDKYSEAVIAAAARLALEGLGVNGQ

MIC [1]: 50 to 400 µg/mL (≈ 155 to 1240 µM)
MIC (yeasts; moderate antifungal activity): 6.25 to 50 µg/mL (≈ 19.3 to 155 µM)
Compound: OB(O)c1cc(Br)c(B(O)O)cc1Br [1i]

Compound: OB(O)c1ccccc1B(O)O [3a, phenylene-1,2-diboronic acid]
MIC [1]: 50 to 400 µg/mL (≈ 302 to 2410 µM)
Average FICI with ERT [2]: 0.23
Average FICI with IMI [2]: 0.13
Average FICI with MEM [2]: 0.17
The lowest FICI with ERT [2]: 0.17
The lowest FICI with IMI [2]: 0.10
The lowest FICI with MEM [2]: 0.10
MIC of meropenem in combination with agent ([3]; agent 4 mg/L): 0.50 µg/mL
meropenem MIC reduction ([3]; agent 4 mg/L): 4 fold
MIC of meropenem in combination with agent ([3]; agent 8 mg/L): 0.125 µg/mL
meropenem MIC reduction ([3]; agent 8 mg/L): 16 fold
MIC of meropenem in combination with agent ([3]; agent 16 mg/L): 0.062 µg/mL
meropenem MIC reduction ([3]; agent 16 mg/L): 32 fold
MIC (E. coli DH5α; Escherichia coli, read-out: MIC of agent alone): 400 µg/mL
MIC of meropenem in combination with agent (E. coli DH5α; agent 16 mg/L): 0.016 µg/mL
Relative absorbance (nitrocefin hydrolysis, 486 nm) ([4]; agent 4 mg/L): 1.451 and 1.436 and 1.174
Relative absorbance (nitrocefin hydrolysis, 486 nm) ([4]; agent 8 mg/L): 1.305 and 1.279 and 1.249
Relative absorbance (nitrocefin hydrolysis, 486 nm) ([4]; agent 16 mg/L): 1.090 and 1.114 and 1.077
carbapenems' MIC reduction, up to (KPC producers; agent 4 mg/L): ≤ 8 fold
carbapenems' MIC reduction, up to (KPC producers; agent 8 mg/L): up to 16 fold
carbapenems' MIC reduction, up to (KPC producers; agent 16 mg/L): up to 64 fold
fractional inhibitory concentrations indices with carbapenems (KPC producers; checkerboard assays): 0.1–0.32
ceftazidime MIC reduction, up to (AmpC producers; agent 4 mg/L): ≤ 2 fold
ceftazidime MIC reduction, up to (AmpC producers; agent 8 mg/L): up to 4 fold
ceftazidime MIC reduction, up to (AmpC producers; agent 16 mg/L): ≤ 8 fold

Compound: OB(O)c1ccc(C(F)(F)F)cc1B(O)O [3e]
MIC (yeasts; most Candida spp.): 3.12 to 6.25 µg/mL (≈ 13.3 to 26.7 µM)
MFC (yeasts): 400 µg/mL (≈ 1710 µM)

MIC (Gram-positive strains): 12.5 to 25 µg/mL (≈ 81.2 to 162 µM)
Compound: OB(O)c1ccccc1S [7c, 2-mercaptophenylboronic acid]
MFC (yeasts): 25 to 200 µg/mL (≈ 162 to 1300 µM)
